According to patent US5529918A, “Process for preparing neuraminidase” (Fidia S.p.A., priority 1991, dated 1996):

Tested on: neuraminidase from Arthrobacter Sp. (Arthrobacter ureafaciens VR-1, NCIMB 40717), purified, molecular weight 55,000-60,000
Assay: Neuraminidase enzymatic activity and inhibition (thiobarbituric acid method, released NANA)
Format: biochemical
Conditions: inhibition of the neuraminidase by NANA; GDia as substrate in the activity test
Description: The enzymatic activity of the neuraminidase is determined at the saturation levels of the substrate concentration, corresponding to 5 times the Km value.
The released product is measured by employing the colorimetric technique (thiobarbituric acid method). For instance, when the neuraminidase enzyme and its substrate (a ganglioside like GDia) are incubated for 5-10 minutes and the NANA, hydrolyzed from the substrate, is employed for evaluating the enzymatic activity, the NANA released in the solution undergoes a series of reactions, in order to determine its actual amount.
Since NANA is also employed for obtaining the culture media of the steady state wherefrom the filtrate is extracted, a few check reactions are carried out, in order to ascertain that the measured NANA be the one coming from the reaction between enzyme and substrate and not the one coming as a residue from the original culture.
For instance, a few tests are carried out on 3 test-tubes, as reported hereinbelow. […]
In the first test-tube (S) there should be no NANA. Should NANA be retrieved in the second test-tube (B), its spectrophotometric reading is subtracted from the reading obtained from the reaction in test-tube three (E). The enzyme activity is therefore indirectly measured as the amount of hydrolized NANA per minute at pH 5.3 and at 37° C., using GDia as the substrate. […]

Structure (SMILES): CC(=O)N[C@H]1[C@H]([C@H](O)[C@H](O)CO)OC(O)(C(=O)O)C[C@@H]1O (stereo partly shown) [NANA, N-acetyl-neuraminic acid]
- Ki: ~300 µM
